Data from US20250171450A1, “NOVEL COELENTERAZINE DERIVATIVES” (National Institute of Advanced Industrial Science and …, priority 2022, published 2025).

Tests used:
ALuc16 = test: Evaluation of luminescence brightness, ALuc16 expressed in COS-7 cells (live cells and lysates); assay type: cell-based, luminescent plankton; conditions: COS-7 live cells and lysates (FIGS. 1, 2); 100 μM diluted luminescent substrate solution
Description: (§1) For luminescence measurements, the IVIS Imaging System purchased from PerkinElmer (old name: Caliper Life Sciences) was used.
(§2) As live cells expressing luminescent enzymes, COS-7 cells derived from the kidney of an African green monkey were used, and the evaluations were also conducted with the lysates produced by the lysis of these live cells.
(§3) The COS-7 cells derived from the kidney of the African green monkey were seeded in a 6-well microplate and were cultured in a CO2 incubator until 70% of the bottom area was covered by the cells. Using TransIT-LT1 reagent (Mirus), the plasmid encoding each of the following marine bioluminescent enzymes was transiently expressed in cells in each well.
(§4) After this lipofection, the cells were cultured in a CO2 incubator for one day. The cells were then subcultured into a 96-well microplate and further incubated for one day.
(§5) The wells with cells transfected with the same plasmid were conceptually divided into two, where one was used for lysate experiments and the other for live cell experiments. For the lysate, first, the cell medium was removed from the 96-well microplate, and then 40 μL of cell lysis reagent (lysate) available from Promega K. K. was injected into each well and the plate was incubated for 15 minutes. For the live cell experiments, after the cell medium was completely removed, the microplate was immediately sealed to prevent the sample evaporation until the luminescence measurements.
(§6) Each luminescent substrate was first dissolved in methanol (PEG400, 25%) to 5 mM (stock solution), which was further diluted with phosphate-buffered saline (PBS) to 100 μM (this solution is hereinafter referred to as diluted luminescent substrate solution). This “diluted luminescent substrate solution” was dispensed in advance into each empty well of a 96-well microplate. […] The bioluminescence brightness from the 96-well black frame microplate was measured, and analyzed using the dedicated software Living Image ver. […]

ALuc47 = test: Evaluation of luminescence brightness, ALuc47 expressed in COS-7 cells (live cells and lysates); assay type: cell-based, luminescent plankton; conditions: 100 μM diluted luminescent substrate solution
Description: as §1, §2, §3, §4, §5, §6

[1] = test system: Renilla luciferase 8.6-535SG (RLuc8.6SG); test: Evaluation of luminescence brightness, RLuc8.6SG expressed in COS-7 cells (live cells and lysates); assay type: cell-based, Renilla reniformis; conditions: COS-7 live cells and lysates (FIGS. 7, 8); 100 μM diluted luminescent substrate solution
Description: as §1, §2, §3, §4, §5, §6

NanoLuc [2] = biological target: T1, NanoLuc (Oplophorus gracilirostris, UniProt Q9GV45, A31E/A60N/A81I/F95D/I117V/K70R/L54V/L99Q/M102K/N193R/P142E/Q151K/Q38R/Q45L/V71I/Y165I); test: Evaluation of luminescence brightness, NanoLuc expressed in COS-7 cells (live cells and lysates); assay type: cell-based; conditions: COS-7 live cells and lysates (FIGS. 10, 11); 100 μM diluted luminescent substrate solution
T1 construct: host or cells: COS-7
Description: as §1, §2, §3, §4, §5, §6

[3] = test system: ALuc16, ALuc47, RLuc8.6SG, NanoLuc; test: Enzyme specificity from luminescence brightness across the luminescent enzymes; assay type: cell-based; conditions: comparison of luminescence among ALuc16, ALuc47, RLuc8.6SG
Description: as §1, §2, §3, §4
The wells with cells transfected with the same plasmid were conceptually divided into two, where one was used for lysate experiments and the other for live cell experiments. […] For the live cell experiments, after the cell medium was completely removed, the microplate was immediately sealed to prevent the sample evaporation until the luminescence measurements. […]

NanoLuc [4] = biological target: T1, NanoLuc; test: Evaluation of bioluminescence spectrum, NanoLuc lysate; assay type: biochemical; conditions: COS-7 lysate (FIG. 12)
Description: Measurements were conducted using the luminescence spectrum device AB-1850 available from ATTO Corporation.
The measured spectra were obtained with a measurement parameter-tuned detector.
The COS-7 cells were seeded in a 6-well microplate and were cultured in a CO2 incubator until 70% of the bottom area was covered by the cells. Using TransIT-LT1 reagent (Mirus), the plasmid encoding each of the following marine bioluminescent enzymes was transiently expressed in cells in each well.
After this lipofection, the cells were cultured in a CO2 incubator for one day. After the cell medium was completely removed from the 6-well microplate, 200 μL of cell lysis reagent (lysate) available from Promega K. K. was added to each well and the microplate was incubated at room temperature for 15 minutes.
Twenty microliters of this lysate were dispensed into each PCR tube, and 20 μL of the 100 μM diluted luminescent substrate solution was added at the time of luminescence brightness evaluation. The PCR tubes were immediately placed in a spectrophotometer (AB-1850, ATTO Corporation), and the bioluminescence spectrum was measured in the high-sensitivity mode with integration modes of 0.5 seconds, 5 seconds, 10 seconds, and 30 seconds. […]

[5] = COS-7 live cells and lysates (FIGS. 4, 5)

T1 sequence (Q9GV45 28-196 with tags or gaps with the stated changes limits assumed): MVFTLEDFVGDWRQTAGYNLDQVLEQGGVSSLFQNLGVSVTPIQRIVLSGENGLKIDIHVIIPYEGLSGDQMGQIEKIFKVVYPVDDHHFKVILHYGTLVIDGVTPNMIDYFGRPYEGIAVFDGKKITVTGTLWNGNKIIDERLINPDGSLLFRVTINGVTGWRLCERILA

SMILES: O=c1c(Cc2ccc(O)cc2)nc2c(Cc3ccccc3)[nH]c(-c3ccc4c(c3)OCCO4)cn1-2 [structural formula (1-1)]
- luminescence for ALuc16 (ALuc16): high luminescence at high brightness
- luminescence for ALuc47 (ALuc47; [5]): slight luminescence
- luminescence for RLuc8.6SG [1]: slight luminescence
- luminescence for NanoLuc (NanoLuc [2]): no luminescence activity
- enzyme specificity [3]: enzyme specificity for ALuc16

SMILES: O=c1c(Cc2ccc(O)cc2)nc2c(Sc3ccccc3)[nH]c(-c3ccc(O)cc3)cn1-2 [structural formula (2-1)]
- luminescence for ALuc16 (ALuc16): luminescence activity
- luminescence for ALuc47 (ALuc47; [5]): also showed luminescence
- luminescence for RLuc8.6SG [1]: luminescence activity
- luminescence for NanoLuc (NanoLuc [2]): luminescence activity
- luminescence spectral peak for NanoLuc (NanoLuc [4]): 507 nm

SMILES: O=c1c(Cc2ccc(O)cc2)nc2c(Sc3ccc(F)cc3)[nH]c(-c3ccc(O)cc3)cn1-2 [structural formula (2-2)]
- luminescence for ALuc16 (ALuc16): luminescence activity
- luminescence for ALuc47 (ALuc47; COS-7 live cells (FIG. 4 only cited)): slight luminescence
- luminescence for RLuc8.6SG [1]: luminescence activity
- luminescence for NanoLuc (NanoLuc [2]): slight luminescence
